Experimental data from patent US11639350B2, “Heteroaryldihydropyrimidine derivatives and methods of treating hepatitis B infections” (Janssen Pharmaceutica NV, priority 2018, dated 2023).

Experiments:
HBV = HBV inhibitory activity: HBV DNA in the culture medium of HepG2.2.15 cells by q-PCR; type: cell-based; conditions: Hepatitis B virus, HepG2.2.15, 144 h, HepG2.2.15 cells, 6 days of compound treatment, HBV DNA in culture medium by q-PCR, highest concentration 10 μM; read-out: EC50
Summary of the method: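 HepG2.2.15 cells in 2% FBS medium, 40,000 per well, treated 6 days with compound (medium refreshed once), eight 3-fold dilutions from 10 μM top. HBV DNA extracted from culture medium and quantified by q-PCR; EC50 averaged over repeats. Cytotoxicity run in parallel at 5,000 cells per well, top 100 μM, giving CC50.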

[1] = Cytotoxicity determination in HepG2.2.15 cells (CCK-8); type: cell-based; conditions: human, 6 days of compound treatment, CCK-8, highest concentration 100 μM
Summary of the method: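 HepG2.2.15 cells seeded at 5,000 cells/well in 2% FBS medium, incubated overnight at 37° C., then treated 6 days with compounds (8 points, 3-fold dilutions, top 100 μM), medium refreshed once midway. CCK-8 added for 2.5 h; A450 read against 630 nm reference; CC50 calculated, averaged over repeats.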

`COC(=O)C1=C(C2CCN(S(C)(=O)=O)CC2)NC(c2nccs2)=NC1c1ccc(Cl)cc1F` (stereo not drawn) [Compound 97B, 4-(4-Chloro-2-fluoro-phenyl)-6-(1-methanesulfonyl-pip-eridin-4-yl)-2-thiazol-2-yl-1,4-dihydro-pyrimidine-5-carboxylic Acid Methyl Ester] showed an EC50 (HBV) of 47 nM and a CC50 at 6 days [1] greater than 100000 nM.

Work on `COC(=O)C1=C(C2CCN(S(=O)(=O)C3CC3)CC2)NC(c2nccs2)=NC1c1ccc(F)cc1Cl` (stereo not drawn) [Compound 100, Methyl 4-(2-chloro-4-fluorophenyl)-6-(1-(cyclopropylsulfonyl)-piperidin-4-yl)-2-(thiazol-2-yl)-1,4-dihydropyrimidine-5-carboxylate] yielded an EC50 (HBV) of 166 nM and a CC50 at 6 days [1] of 7200 nM.

Compound `CCS(=O)(=O)N1CCC(C2=C(C(=O)OC)C(c3ccc(F)cc3Cl)N=C(c3nccs3)N2)CC1` (stereo not drawn) [Compound 101, Methyl 4-(2-chloro-4-fluorophenyl)-6-(1-(ethylsulfonyl)piperidin-4-yl)-2-(thiazol-2-yl)-1,4-dihydropyrimidine-5-carboxylate] has an EC50 (HBV) of 210 nM and a CC50 at 6 days [1] of 38000 nM.

For `COC(=O)C1=C(C2CCN(C(=O)C3CC3)CC2)NC(c2nccs2)=NC1c1ccc(F)cc1Cl` (stereo not drawn) [Compound 102, Methyl 4-(2-chloro-4-fluorophenyl)-6-(1-(cyclopropanecarbonyl)-piperidin-4-yl)-2-(thiazol-2-yl)-1,4-dihydropyrimidine-5-carboxylate], the EC50 (HBV) was 130 nM and the CC50 at 6 days [1] was 57000 nM.

In the case of `COC(=O)C1=C(C2CCN(S(C)(=O)=O)CC2)NC(c2nccs2)=NC1c1ccc(F)cc1Cl` (stereo not drawn) [Compound 103, Methyl 4-(2-chloro-4-fluorophenyl)-6-(1-(methylsulfonyl)-piperidin-4-yl)-2-(thiazol-2-yl)-1,4-dihydropyrimidine-5-carboxylate], the EC50 (HBV) is reported as 501 nM and the CC50 at 6 days [1] is reported as 87000 nM.

`COC(=O)C1=C(C2CCN(S(=O)(=O)CCC(=O)O)CC2)NC(c2nccs2)=NC1c1ccc(F)cc1Cl` (stereo not drawn) [Compound 105, 3-((4-(6-(2-Chloro-4-fluorophenyl)-5-(methoxycarbonyl)-2-(thiazol-2-yl)-3,6-dihydropyrimidin-4-yl)piperidin-1-yl)sulfonyl)propanoic Acid] showed an EC50 (HBV) of 150 nM and a CC50 at 6 days [1] of 14400 nM.

For `COC(=O)C1=C(C2CCN(S(=O)(=O)CC(=O)O)CC2)NC(c2nccs2)=NC1c1ccc(F)cc1Cl` (stereo not drawn) [Compound 107, 2-((4-(6-(2-Chloro-4-fluorophenyl)-5-(methoxycarbonyl)-2-(thiazol-2-yl)-3,6-dihydropyrimidin-4-yl)piperidin-1-yl)sulfonyl)acetic Acid], the EC50 (HBV) was 248 nM and the CC50 at 6 days [1] was 51400 nM.

`COC(=O)C1=C(C2CCN(C(=O)C3(C(=O)OC)CC3)CC2)NC(c2nccs2)=NC1c1ccc(F)cc1Cl` (stereo not drawn) [Compound 108, Methyl-4-(2-chloro-4-fluorophenyl)-6-(1-(1-(methoxycarbonyl)-cyclopropane-1-carbonyl)piperidin-4-yl)-2-(thiazol-2-yl)-1,4-dihydropyrimidine-5-carboxylate] showed an EC50 (HBV) of 77 nM and a CC50 at 6 days [1] of 26900 nM.

Compound `COC(=O)C1=C(C2CCN(S(C)(=O)=O)CC2)NC(c2nccs2)=NC1c1cccc(F)c1Cl` (stereo not drawn) [Compound 112, Methyl 4-(2-chloro-3-fluorophenyl)-6-(1-(methylsulfonyl)-piperidin-4-yl)-2-(thiazol-2-yl)-1,4-dihydropyrimidine-5-carboxylate] has an EC50 (HBV) of 293 nM and a CC50 at 6 days [1] of 43200 nM.

Compound `COC(=O)C1=C(C2CCN(S(=O)(=O)CCC(=O)O)CC2)NC(c2nccs2)=NC1c1cccc(F)c1Cl` (stereo not drawn) [Compound 114, 3-((4-(6-(2-Chloro-3-fluorophenyl)-5-(methoxycarbonyl)-2-(thiazol-2-yl)-3,6-dihydro-pyrimidin-4-yl)piperidin-1-yl)sulfonyl)propanoic Acid] has an EC50 (HBV) of 40 nM and a CC50 at 6 days [1] of 27500 nM.

For `COC(=O)C1=C(C2CCN(S(=O)(=O)c3cccc(C(=O)O)c3)CC2)NC(c2nccs2)=NC1c1cccc(F)c1Cl` (stereo not drawn) [Compound 118, 3-((4-(6-(2-Chloro-3-fluorophenyl)-5-(methoxycarbonyl)-2-(thiazol-2-yl)-3,6-dihydropyrimidin-4-yl)piperidin-1-yl)sulfonyl)benzoic Acid], the EC50 (HBV) was 15 nM and the CC50 at 6 days [1] was 59100 nM.

For `COC(=O)C1=C(C2CCN(C(=O)CO)CC2)NC(c2nccs2)=NC1c1ccc(F)cc1Cl` (stereo not drawn) [Compound 122, Methyl 4-(2-chloro-4-fluorophenyl)-6-(1-(2-hydroxyacetyl)-piperidin-4-yl)-2-(thiazol-2-yl)-1,4-dihydropyrimidine-5-carboxylate], the EC50 (HBV) was 394 nM and the CC50 at 6 days [1] was 5100 nM.

For `COC(=O)C1=C(C2CCN(C(=O)CNC(=O)OC(C)(C)C)CC2)NC(c2nccs2)=NC1c1ccc(F)cc1Cl` (stereo not drawn) [Compound 129, 6-[1-(2-tert-Butoxycarbonylamino-acetyl)-piperidin-4-yl]-4-(2-chloro-4-fluoro-phenyl)-2-thiazol-2-yl-1,4-dihydro-pyrimidine-5-carboxylic Acid Methyl Ester], the EC50 (HBV) was 55 nM and the CC50 at 6 days [1] was 28200 nM.

`COC(=O)C1=C(C2CN(S(=O)(=O)c3ccccc3)C2)NC(c2nccs2)=NC1c1ccc(F)cc1Cl` (stereo not drawn) [Compound 130, 6-(1-Benzenesulfonyl-azetidin-3-yl)-4-(2-chloro-4-fluoro-phenyl)-2-thiazol-2-yl-1,4-dihydro-pyrimidine-5-carboxylic acid methyl ester] gave an EC50 (HBV) of 550 nM and a CC50 at 6 days [1] greater than 10000 nM.

In the case of `COC(=O)C1=C(C2CCN(S(=O)(=O)C3CC(C)(C(=O)O)C3)CC2)NC(c2nccs2)=NC1c1ccc(F)cc1Cl` (stereo not drawn) [Compound 141, (trans)-3-((4-(6-(2-chloro-4-fluorophenyl)-5-(methoxycarbonyl)-2-(thiazol-2-yl)-3,6-dihydropyrimidin-4-yl)piperidin-1-yl)sulfonyl)-1-methylcyclobutane-1-carboxylic Acid], the EC50 (HBV) is reported as 51 nM and the CC50 at 6 days [1] is reported as 30700 nM.

`CCOC(=O)C1=C(C2CCN(S(=O)(=O)[C@H]3C[C@H](C(=O)O)C3)CC2)NC(c2nccs2)=NC1c1ccccc1Cl` (stereo partly drawn) [Compound 146, (trans)-3-((4-(6-(2-chlorophenyl)-5-(ethoxycarbonyl)-2-(thiazol-2-yl)-3,6-dihydropyrimidin-4-yl)piperidin-1-yl)sulfonyl)cyclobutane-1-carboxylic Acid] showed an EC50 (HBV) of 68 nM and a CC50 at 6 days [1] of 42100 nM.

For `CCOC(=O)C1=C([C@H]2CC[C@H](C(=O)O)CC2)NC(c2nccs2)=NC1c1ccccc1Br` (stereo partly drawn) [Compound 148A, (trans)-4-(6-(2-bromophenyl)-5-(ethoxycarbonyl)-2-(thiazol-2-yl)-3,6-dihydropyrimidin-4-yl)cyclohexane-1-carboxylic Acid], the EC50 (HBV) was 97 nM and the CC50 at 6 days [1] was 29400 nM.

In the case of `CCOC(=O)C1=C([C@H]2CC[C@H](C(=O)O)CC2)NC(c2nccs2)=NC1c1cccc(F)c1Br` (stereo partly drawn) [Compound 150A, (trans)-4-(6-(2-bromo-3-fluorophenyl)-5-(ethoxycarbonyl)-2-(thiazol-2-yl)-3,6-dihydropyrimidin-4-yl)cyclohexane-1-carboxylic Acid], the EC50 (HBV) is reported as 71 nM and the CC50 at 6 days [1] is reported as 28100 nM.

Work on `COC(=O)C1=C([C@H]2CC[C@H](C(=O)O)CC2)NC(c2nccs2)=NC1c1cccc(F)c1Br` (stereo partly drawn) [Compound 152A] yielded an EC50 (HBV) of 92 nM and a CC50 at 6 days [1] of 39500 nM.

Work on `CCOC(=O)C1=C([C@H]2CC[C@H](C(=O)O)CC2)NC(c2nccs2)=NC1c1ccc(F)c(F)c1C` (stereo partly drawn) [Compound 154A] yielded an EC50 (HBV) of 71 nM and a CC50 at 6 days [1] of 30700 nM.

`CCOC(=O)C1=C([C@H]2CC[C@H](C(=O)O)CC2)NC(c2nccs2)=NC1c1ccc(F)cc1Br` (stereo partly drawn) [Compound 156] gave an EC50 (HBV) of 71 nM and a CC50 at 6 days [1] of 34900 nM.
